Source: patent US20230068687A1, “PROCESS FOR PREPARING A SOLID FORM OF BASIC AMINO ACID SALTS OF POLYUNSATURATED FATTY ACIDS” (SILICYCLE INC., priority 2020, published 2023)

Key:
[1] = Stability examination of L-lysine salts stored in clear vials with closed lids at room temperature (Table 1); type: physicochemical; conditions: for TOTOX: Totox=2*PV+AV; for AV / PV: closed lids, room temperature
Experimental: The comparison of oxidative status of basic amino acid salts of PUFAs, starting material in ester form and fish oil in free acid form are assessed by measuring the PV and AV, then all the samples are subjected to the same oxidizing condition over a certain period of time, followed by the measuring PV and AV of the samples. The oxidizing conditions are selected from one of: 1) storage in closed containers at atmospheric condition, opened once daily for the first month, twice weekly for the second month, once weekly for the third month and twice a month up to 6 months; 2) storage in loosely closed containers exposed to air at 45° C. for 1 month.
(§1) Food Lab Analyzer: Among several techniques known in the art for determining the oxidative levels of a sample, CDR FoodLab® Junior analyzer is used herein for determining PV and AV. The procedures are described as below.
(§2) The solid product 0.5 g was dissolved in 2 mL of MeOH and HCl solution with the ratio of 1:10 (v/v). The mixture was stirred for 5 minutes, followed by the addition of 5 mL of water. The mixture was extracted with 3 mL of Hexane containing 100 ppm butylated hydroxytoluene (BHT). The organic layer was dried over MgSO4, filtrated and evaporated under reduced pressure at the temperature of 0-70° C. to get the fish oil in free acid form, which was evaluated with the CDR FoodLab® Junior analyzer to get anisidine and peroxide values using the Food Lab analyzer.
(§3) The molar ratio of EPA to L-lysine was 1:1. The mixture was stirred at atmospheric condition for 5 minutes to obtain a homogenous solution. 30 mL of ethanol was added to precipitate the L-lysine amino acid salt. […] About 4.5 g of EPA-Lys was stored in a 20 ml of clear vial with a diameter of 27 mm, which was placed with closed lids on the bench at room temperature for the stability examination for 90 days.
as §3, with “ratio of DHA to L-lysine” for “ratio of EPA to L-lysine”
The molar ratio of seal oil in free acid form to L-lysine was 1:1. The mixture was stirred at atmospheric condition for 5 minutes to obtain a homogenous solution. 35 mL of ethanol was added to precipitate the L-lysine amino acid salt.

[2] = Oxidative status (peroxide value, anisidine value) of starting materials and products as obtained, CDR FoodLab Junior analyzer; type: physicochemical; conditions: as obtained / as used, before storage
Experimental: The final product in powder form is isolated by evaporating said first and second organic solvents and water from the reaction mixture to recover said basic amino acid salts of PUFAs. Preferably, said evaporation step is carried under reduced pressure between about 0° C.-70° C. depending on the properties of the equipment used. […] The evaporation step requires said first/second organic solvents and water to be in a liquid form, thereby excluding the freeze-drying methods that require the solvents to be frozen. The oxidative status of the obtained final product is quantified by peroxide value (PV), anisidine value (AV) and Totox value. PV is a measure of the level of the primary oxidation products (lipid hydroperoxides) in the product, which is specified in milliequivalents O2 per kg of sample, while the AV is an unspecific measure of saturated and unsaturated carbonyl compounds. Totox is calculated by the equation Totox=2*PV+AV.
as §1, §2

CC/C=C\C/C=C\C/C=C\C/C=C\C/C=C\C/C=C\CCC(=O)O.NCCCC[C@H](N)C(=O)O [DHA-Lys, L-Lysine Salt of Docosahexaenoic Acid]
TOTOX ([1]; Time 1 d): 61.3
AV ([1]; Time 1 d): 29.3 A/g
PV ([1]; Time 1 d): 16.0 meq O2/Kg
TOTOX ([1]; Time 61 d): 11.8
AV ([1]; Time 61 d): 4.0 A/g
PV ([1]; Time 61 d): 3.9 meq O2/Kg
AV (anisidine value) [2]: 29.3 A/g
PV (peroxide value) [2]: 16.0 meqO2/kg

CC/C=C\C/C=C\C/C=C\C/C=C\C/C=C\CCCC(=O)O.NCCCC[C@H](N)C(=O)O [EPA-Lys, L-Lysine Salt of Eicosapentaenoic Acid]
TOTOX ([1]; Time 1 d): 21.5
AV ([1]; Time 1 d): 9.5 A/g
PV ([1]; Time 1 d): 6.0 meq O2/Kg
TOTOX ([1]; Time 61 d): 3.8
AV ([1]; Time 61 d): <0.5 A/g
PV ([1]; Time 61 d): 1.9 meq O2/Kg
AV (anisidine value) [2]: 9.5 A/g
PV (peroxide value) [2]: 6.0 meqO2/kg
